# Reference: patent US12564596B2, “Agents and methods for modulating pathogen activity” (Griffith University, priority 2018, dated 2026)
# Tests used:
# [1] = system: primary T-cell derived WITO HIV interaction with human rI-domain; experiment: SPR 1:1 competition assay, WITO HIV binding to rI-domain; conditions: for % inhibition: 1:1 competition, 1 μM, 1 µM
# Procedure: For competition analysis SPR of the HIV interaction with human rI-domain, primary T-cell derived WITO HIV was immobilized on a Cl sensor chip surface. Human rI-domain, drug or drug and human rI-domain were flowed at 1 μM over the immobilized HIV and the response units of the interactions were recorded. Any drug that could not compete with the virus or pilin binding to the rI-domain was also discarded. Remaining drugs were evaluated for known safety in humans and known therapeutic concentrations to determine if the drug would be tested, and at what concentrations, in in vitro cell models. All SPR sensorgrams and results plots were analyzed with Biacore S200 Evaluation Software (GE Healthcare Life Sciences).
# [2] = system: HIV strains NL4-3 and NLAD8 adherence to human PEX cells; experiment: Fluorometric adherence assay, HIV to PEX cells; format: cell-based; conditions: for decrease of cell association to PEX cells: 100 μM; for reduction in cell adherence to PEX cells: lowest concentration, printed 'down to 100 μM'
# Procedure: The ability of carbamazepine to block adherence of HIV to human PEX cells was evaluated using a fluorometric adherence assay, essentially as described by Jen et al. (2013, supra). In this regard, PEX cells were seeded to a 96-well plate and allowed to grow to confluence. Fluorescently labelled HIV (10 ng of p24 HIV capsid protein equivalent of HIV in 100 μL of F12 culture media) were then used to challenge (2 h) PEX cells simultaneously with, or without, various concentrations of carbamazepine (as noted). Fluorescence (485/528 nm) intensity, corresponding to HIV cell adherence, was recorded using a Synergy HT Multi-mode Microplate Reader (BioTek Instruments, Winooski, VT USA). The assay was performed in triplicate on 3 separate occasions. A Kruskal-Wallis k-sample analysis of variance was used to determine the statistical significance of the calculated mean of viral-cell adherence.
# [3] = system: N. gonorrhoeae strain MS11gfp adherence to CHO-CR3 cells; experiment: Fluorometric adherence assay, gonococci to CHO cells; format: cell-based, Neisseria gonorrhoeae; conditions: 1 h post-challenge
# Procedure: The ability of carbamazepine to block adherence of N. gonorrhoeae strain MS11gfp to CHO-neo or CHO-CR3 cells was evaluated using a fluorometric adherence assay. Assays were performed essentially as described by Jen et al (2013, PLoS Pathog. 9(5):e1003377). In this regard, CHO-neo or CHO-CR3 cells were seeded to a 96-well plate and allowed to grow to confluence. MS11gfp gonococci were then used to challenge (1 h) CHO cells simultaneously with, or without, various concentrations of carbamazepine (as noted). Fluorescence (485/528 nm) intensity, corresponding to bacterial adherence, was recorded using a Synergy HT Multi-mode Microplate Reader (BioTek Instruments, Winooski, VT USA). The assay was performed in triplicate on 3 separate occasions. A Kruskal-Wallis k-sample analysis of variance was used to determine the statistical significance of the calculated mean of bacterial adherence.
# (§1) The ability of the compounds, or negative controls to block adherence of N. gonorrhoeae strain MS11gfp to PEX cells, CHO-CR3, or CHO-neo cells was evaluated using a fluorometric microtiter plate assay. Assays were performed essentially as described by Jen et al. (2013, Plos Pathog 9(5): e1003377). In this regard, GFP-expressing gonococci were used to challenge (1 h) PEX or CHO cells immediately following compound addition. Fluorescence (485/528 nm) intensity, corresponding to bacterial adherence, was recorded using a Synergy HT Multi-mode Microplate Reader (BioTek Instruments, Winooski, VT USA). Blank wells, devoid of PEX or CHO cells, also were inoculated with bacteria and served as a control for non-specific binding. The assay was performed in triplicate on 3 separate occasions. A Student's t-test was used to determine the statistical significance of the calculated mean of bacterial adherence.
# [4] = system: N. gonorrhoeae adherence to primary human cervical epithelial (PEX) cells; experiment: Fluorometric adherence assay, gonococci to PEX cells; format: cell-based, Neisseria gonorrhoeae
# From the text: Briefly, six N. gonorrhoeae strains were used in the experiments. These included the laboratory strain, MS11; the low-passage isolates, 1291, UT38097, LT38885, PID-26, and SK92-679; all of which were transformed with the green fluorescent protein (GFP) expression plasmid, pCmGFP (GenBank accession number FJ172221) Srikhanta et al (2009, PLoS Pathog. 5(4):e1000400) and, thus, expressed GFP Edwards et al (2000, Infect Immun 68(9):5354-63). […] The ability of carbamazepine to block the adherence of N. gonorrhoeae to human, primary cervical epithelial (PEX) cells was evaluated using a fluorometric adherence assay. Assays were performed essentially as described by Jen et al (2013, supra). In this regard, PEX cells were seeded to a 96-well plate and allowed to grow to confluence. Gonococci were then used to challenge (1 h) PEX cells simultaneously with, or without, various concentrations of carbamazepine ([…], 10 nM, 1 μM, or 100 μM, as noted) or 1% DMSO (vehicle control). Uninfected PEX cells treated with 1% DMSO served as a control for background fluorescence. Fluorescence (485/528 nm) intensity, corresponding to bacterial adherence, was recorded using a Synergy HT Multi-mode Microplate Reader (BioTek Instruments, Winooski, VT USA). The assay was performed in triplicate on 3 separate occasions. A Student's t-test was used to determine the statistical significance of the calculated mean of bacterial adherence.
# as §1
# [5] = target: T1, human recombinant I-domain (rI-domain) of CD11b (Homo sapiens, UniProt P11215); experiment: Surface plasmon resonance binding to human rI-domain (KD); conditions: SPR, single cycle kinetics, 25° C., PBS; read-out: KD
# T1 construct: made in house
# T1 sequence (P11215 150-328 limits assumed): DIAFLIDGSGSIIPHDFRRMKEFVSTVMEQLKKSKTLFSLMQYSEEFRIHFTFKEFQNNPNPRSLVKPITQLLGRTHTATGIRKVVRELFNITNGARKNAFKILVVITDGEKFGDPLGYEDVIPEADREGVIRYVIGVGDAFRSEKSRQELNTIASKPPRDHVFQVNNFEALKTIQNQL
structure (smiles),measurement,setting,value
"NC(=O)N1c2ccccc2C=Cc2ccccc21 [carbamazepine, 5H-dibenzo[b,f]azepine-5-carboxamide]",% inhibition,[1]; listed as CARBAMAZEPINE,97.09%
same,% inhibition,[1]; listed as Carbamazepine,~97%
same,Block HIV in SPR,[1]; direct competition SPR,Yes
same,Drug RU,[1]; drug alone flowed at 1 μM over immobilized WITO HIV,0.227 RU
same,Pilin + Drug RU,"[1]; drug and human rI-domain flowed at 1 μM, 1:1",1.772 RU
same,decrease of cell association to PEX cells,"[2]; NL4-3, 2 h",88.53%±0.37
same,reduction in cell adherence to PEX cells,[2]; NL4-3,59.65%±0.41
same,HIV adherence to PEX cells with increasing concentrations,"[2]; NL4-3 and NLAD8, 2 h",dose-dependent decrease
same,decrease of cell association to PEX cells,"[2]; NLAD8, 2 h",87.98%±0.48
same,reduction in cell adherence to PEX cells,[2]; NLAD8,59.65%±0.24
same,gonococcal adherence to CHO-CR3 cells compared with CHO-neo cells,[3]; 1 μM,not significantly different than that recorded for CHO-neo cells
same,"gonococcal adherence to CHO-CR3, but not CHO-neo, cells with increasing concentrations",[3],dose-dependent decrease
same,gonococcal adherence to PEX cells with increasing concentrations,[4]; 1 h post-challenge,dose-dependent decrease
same,inhibition at 1 µM,"[4]; Neisseria gonorrhoeae, 1 h, read-out: inhibition of adherence to PEX cells",> 95%
same,Kd,[5],2.12 nM
